PubChem BioAssay AID1963832 (Molecular Pharmacology Branch, DTP, NCI, 2024)

Tested on: 885724-159-R-J1-PDC complex spheroid viability
Assay: Anticancer human tumor 885724-159-R-J1-PDC patient-derived pancreatic adenocarcinoma cell line growth inhibition [POLQ]
Details: for IC50: curve of first compound; for viability, T/C: stronger effect = lower value
Method in brief: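 Patient-derived tumour cells were co-cultured with HUVEC and mesenchymal stem cells as multicellular spheroids at 37 °C. They were treated with POLQ inhibitors (novobiocin, ART-558, RP6685) alone or combined with other agents. Top concentrations were at or near clinical Cmax (otherwise 10 microM; SN-38 at 1 microM), decreasing in half-log steps.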

[1] = second compound 0.0316 µM, first compound 0.0316 µM
[2] = second compound 0.0316 µM, first compound 0.1 µM
[3] = second compound 0.0316 µM, first compound 0.316 µM
[4] = second compound 0.0316 µM, first compound 1 µM
[5] = second compound 0.0316 µM, first compound 3.16 µM
[6] = second compound 0.0316 µM, first compound 10 µM
[7] = second compound 0.1 µM, first compound 0.0316 µM
[8] = second compound 0.1 µM, first compound 0.1 µM
[9] = second compound 0.1 µM, first compound 0.316 µM
[10] = second compound 0.1 µM, first compound 1 µM
[11] = second compound 0.1 µM, first compound 3.16 µM
[12] = second compound 0.1 µM, first compound 10 µM
[13] = second compound 0.316 µM, first compound 0.0316 µM
[14] = second compound 0.316 µM, first compound 0.1 µM
[15] = second compound 0.316 µM, first compound 0.316 µM
[16] = second compound 0.316 µM, first compound 1 µM
[17] = second compound 0.316 µM, first compound 3.16 µM
[18] = second compound 0.316 µM, first compound 10 µM
[19] = second compound 1 µM, first compound 0.0316 µM
[20] = second compound 1 µM, first compound 0.1 µM
[21] = second compound 1 µM, first compound 0.316 µM
[22] = second compound 1 µM, first compound 1 µM
[23] = second compound 1 µM, first compound 3.16 µM
[24] = second compound 1 µM, first compound 10 µM
[25] = second compound 3.16 µM, first compound 0.0316 µM
[26] = second compound 3.16 µM, first compound 0.1 µM
[27] = second compound 3.16 µM, first compound 0.316 µM
[28] = second compound 3.16 µM, first compound 1 µM
[29] = second compound 3.16 µM, first compound 3.16 µM
[30] = second compound 3.16 µM, first compound 10 µM
[31] = second compound 10 µM, first compound 0.0316 µM
[32] = second compound 10 µM, first compound 0.1 µM
[33] = second compound 10 µM, first compound 0.316 µM
[34] = second compound 10 µM, first compound 1 µM
[35] = second compound 10 µM, first compound 3.16 µM
[36] = second compound 10 µM, first compound 10 µM
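Note: spheroids exposed to compounds for 7 days.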

**Q.** For `Nc1ccn(C2OC(CO)C(O)C2(F)F)c(=O)n1` (stereo unspecified) + COC1C(OC(N)=O)C(O)C(Oc2ccc3c(O)c(NC(=O)c4ccc(O)c(CC=C(C)C)c4)c(=O)oc3c2C)OC1(C)C, which IC50 (second compound 0.0316 µM) is on record?
**A.** Its IC50 is 0.8 µM.

**Q.** And the IC50 (second compound 0.1 µM)?
**A.** The IC50 was 1.86 µM.

**Q.** What about the IC50 (second compound 0.316 µM) of the same molecule?
**A.** The IC50 was 3.11 µM.

**Q.** And the IC50 (second compound 1 µM)?
**A.** Its IC50 is 0.186 µM.

**Q.** What about the IC50 (second compound 3.16 µM) of the same molecule?
**A.** The IC50 was 1.55 µM.

**Q.** And the IC50 (second compound 10 µM)?
**A.** The IC50 was > 10 µM.

**Q.** What about the viability, T/C [1] of the same molecule?
**A.** Its viability, T/C is 61.7%.

**Q.** And the viability, T/C [2]?
**A.** The viability, T/C was 58.4%.

**Q.** What about the viability, T/C [3] of the same molecule?
**A.** The viability, T/C was 51.4%.

**Q.** And the viability, T/C [4]?
**A.** Its viability, T/C is 49.7%.

**Q.** What about the viability, T/C [5] of the same molecule?
**A.** Its viability, T/C is 46.8%.

**Q.** And the viability, T/C [6]?
**A.** The viability, T/C was 44.3%.

**Q.** What about the viability, T/C [7] of the same molecule?
**A.** Its viability, T/C is 61.6%.

**Q.** What about the viability, T/C [8] of the same molecule?
**A.** The viability, T/C was 57.6%.

**Q.** What about the viability, T/C [9] of the same molecule?
**A.** The viability, T/C was 54%.

**Q.** And the viability, T/C [10]?
**A.** The viability, T/C was 52.4%.

**Q.** And the viability, T/C [11]?
**A.** The viability, T/C was 50.4%.

**Q.** What about the viability, T/C [12] of the same molecule?
**A.** Its viability, T/C is 40%.

**Q.** What about the viability, T/C [13] of the same molecule?
**A.** The viability, T/C was 67.8%.

**Q.** What about the viability, T/C [14] of the same molecule?
**A.** Its viability, T/C is 55%.

**Q.** And the viability, T/C [15]?
**A.** Its viability, T/C is 52.7%.

**Q.** What about the viability, T/C [16] of the same molecule?
**A.** Its viability, T/C is 59.5%.

**Q.** What about the viability, T/C [17] of the same molecule?
**A.** The viability, T/C was 51.8%.

**Q.** What about the viability, T/C [18] of the same molecule?
**A.** Its viability, T/C is 44%.

**Q.** What about the viability, T/C [19] of the same molecule?
**A.** The viability, T/C was 71.1%.

**Q.** What about the viability, T/C [20] of the same molecule?
**A.** The viability, T/C was 51.3%.

**Q.** And the viability, T/C [21]?
**A.** The viability, T/C was 48.4%.

**Q.** What about the viability, T/C [22] of the same molecule?
**A.** The viability, T/C was 51.6%.

**Q.** What about the viability, T/C [23] of the same molecule?
**A.** The viability, T/C was 45.2%.

**Q.** And the viability, T/C [24]?
**A.** Its viability, T/C is 41.2%.

**Q.** What about the viability, T/C [25] of the same molecule?
**A.** The viability, T/C was 62.2%.

**Q.** And the viability, T/C [26]?
**A.** The viability, T/C was 59.4%.

**Q.** What about the viability, T/C [27] of the same molecule?
**A.** Its viability, T/C is 52.6%.

**Q.** And the viability, T/C [28]?
**A.** The viability, T/C was 48.1%.

**Q.** What about the viability, T/C [29] of the same molecule?
**A.** Its viability, T/C is 53.9%.

**Q.** What about the viability, T/C [30] of the same molecule?
**A.** The viability, T/C was 44.2%.

**Q.** What about the viability, T/C [31] of the same molecule?
**A.** Its viability, T/C is 69.6%.

**Q.** What about the viability, T/C [32] of the same molecule?
**A.** The viability, T/C was 53.4%.

**Q.** And the viability, T/C [33]?
**A.** Its viability, T/C is 52.9%.

**Q.** And the viability, T/C [34]?
**A.** Its viability, T/C is 56.9%.

**Q.** What about the viability, T/C [35] of the same molecule?
**A.** The viability, T/C was 50.5%.

**Q.** And the viability, T/C [36]?
**A.** The viability, T/C was 45.7%.

**Q.** Which results are given for `CC(=O)O[C@H]1C(=O)[C@@]2(C)[C@H]([C@H](OC(=O)c3ccccc3)[C@]3(O)C[C@H](OC(=O)[C@H](O)[C@@H](NC(=O)c4ccccc4)c4ccccc4)C(C)=C1C3(C)C)[C@]1(OC(C)=O)CO[C@@H]1C[C@@H]2O` + COC1C(OC(N)=O)C(O)C(Oc2ccc3c(O)c(NC(=O)c4ccc(O)c(CC=C(C)C)c4)c(=O)oc3c2C)OC1(C)C?
**A.** IC50 (second compound 0.0316 µM): > 3 µM; IC50 (second compound 0.1 µM): > 3 µM; IC50 (second compound 0.316 µM): > 3 µM; IC50 (second compound 1 µM): > 3 µM; IC50 (second compound 3.16 µM): > 3 µM; IC50 (second compound 10 µM): > 3 µM; viability, T/C (second compound 0.0316 µM, first compound 0.00949 µM): 57.8%; viability, T/C (second compound 0.0316 µM, first compound 0.03 µM): 60.2%; viability, T/C (second compound 0.0316 µM, first compound 0.0949 µM): 55.6%; viability, T/C (second compound 0.0316 µM, first compound 0.3 µM): 59%; viability, T/C (second compound 0.0316 µM, first compound 0.949 µM): 59.9%; viability, T/C (second compound 0.0316 µM, first compound 3 µM): 61.6%; viability, T/C (second compound 0.1 µM, first compound 0.00949 µM): 66.1%; viability, T/C (second compound 0.1 µM, first compound 0.03 µM): 59.6%; viability, T/C (second compound 0.1 µM, first compound 0.0949 µM): 56.8%; viability, T/C (second compound 0.1 µM, first compound 0.3 µM): 66.1%; viability, T/C (second compound 0.1 µM, first compound 0.949 µM): 64.5%; viability, T/C (second compound 0.1 µM, first compound 3 µM): 56.8%; viability, T/C (second compound 0.316 µM, first compound 0.00949 µM): 64%; viability, T/C (second compound 0.316 µM, first compound 0.03 µM): 54.9%; viability, T/C (second compound 0.316 µM, first compound 0.0949 µM): 55.7%; viability, T/C (second compound 0.316 µM, first compound 0.3 µM): 56.6%; viability, T/C (second compound 0.316 µM, first compound 0.949 µM): 61.1%; viability, T/C (second compound 0.316 µM, first compound 3 µM): 68.4%; viability, T/C (second compound 1 µM, first compound 0.00949 µM): 65.4%; viability, T/C (second compound 1 µM, first compound 0.03 µM): 60%; viability, T/C (second compound 1 µM, first compound 0.0949 µM): 57.9%; viability, T/C (second compound 1 µM, first compound 0.3 µM): 62.3%; viability, T/C (second compound 1 µM, first compound 0.949 µM): 53.1%; viability, T/C (second compound 1 µM, first compound 3 µM): 56%; viability, T/C (second compound 3.16 µM, first compound 0.00949 µM): 64.3%; viability, T/C (second compound 3.16 µM, first compound 0.03 µM): 57.6%; viability, T/C (second compound 3.16 µM, first compound 0.0949 µM): 52.9%; viability, T/C (second compound 3.16 µM, first compound 0.3 µM): 56.3%; viability, T/C (second compound 3.16 µM, first compound 0.949 µM): 60.3%; viability, T/C (second compound 3.16 µM, first compound 3 µM): 66.5%; viability, T/C (second compound 10 µM, first compound 0.00949 µM): 60.6%; viability, T/C (second compound 10 µM, first compound 0.03 µM): 51.5%; viability, T/C (second compound 10 µM, first compound 0.0949 µM): 59.3%; viability, T/C (second compound 10 µM, first compound 0.3 µM): 56.5%; viability, T/C (second compound 10 µM, first compound 0.949 µM): 67.2%; viability, T/C (second compound 10 µM, first compound 3 µM): 67.4%

**Q.** Which results are given for `C=CC(=O)N1CCN(c2nc(=O)n(-c3c(C)ccnc3C(C)C)c3nc(-c4c(O)cccc4F)c(F)cc23)C(C)C1` (stereo unspecified) + COC1C(OC(N)=O)C(O)C(Oc2ccc3c(O)c(NC(=O)c4ccc(O)c(CC=C(C)C)c4)c(=O)oc3c2C)OC1(C)C?
**A.** IC50 (second compound 0.0316 µM): > 10 µM; IC50 (second compound 0.1 µM): > 10 µM; IC50 (second compound 0.316 µM): > 10 µM; IC50 (second compound 1 µM): > 10 µM; IC50 (second compound 3.16 µM): > 10 µM; IC50 (second compound 10 µM): > 10 µM; viability, T/C [1]: 104%; viability, T/C [2]: 97.9%; viability, T/C [3]: 110%; viability, T/C [4]: 113%; viability, T/C [5]: 114%; viability, T/C [6]: 91.7%; viability, T/C [7]: 109%; viability, T/C [8]: 91.9%; viability, T/C [9]: 106%; viability, T/C [10]: 108%; viability, T/C [11]: 115%; viability, T/C [12]: 105%; viability, T/C [13]: 107%; viability, T/C [14]: 115%; viability, T/C [15]: 104%; viability, T/C [16]: 112%; viability, T/C [17]: 123%; viability, T/C [18]: 95.1%; viability, T/C [19]: 118%; viability, T/C [20]: 104%; viability, T/C [21]: 112%; viability, T/C [22]: 106%; viability, T/C [23]: 114%; viability, T/C [24]: 83.2%; viability, T/C [25]: 102%; viability, T/C [26]: 108%; viability, T/C [27]: 104%; viability, T/C [28]: 116%; viability, T/C [29]: 124%; viability, T/C [30]: 104%; viability, T/C [31]: 96%; viability, T/C [32]: 93.7%; viability, T/C [33]: 106%; viability, T/C [34]: 110%; viability, T/C [35]: 111%; viability, T/C [36]: 91%
